Results published in US6784155B1, “Inhibitor and stimulator of stem cell proliferation and uses thereof” (Wellstat Therapeutics Corporation, priority 1996, dated 2004).
Positions of bridges follow the written chain, without caps; N, C: chain ends. No end group written: not given here.

How the values were obtained:
CFU-MIX [1] = experiment: CFU-MIX cycling assay in vitro (Ara C kill); type: cell-based, mouse; conditions: Table 19, 100 ng/ml
Method: A similar assay can be performed in vitro, using the cycling status of CFU-MIX instead of CFU-S. The assay is performed as described above for the CFU-S assay except that cytosine arabinoside (Ara C, 30 micrograms/ml) is used as the cycle-specific toxic agent instead of high dose tritiated thymidine (see B. I. Lord in Haemopoiesis—A Practical Approach, N. G. Testa and G. Molineux (Eds.), IRL Press 1993; Pragnell et al. in Culture of Hematopoietic Cells, R. I. Freshney, I. B. Pragnell and M. G. Freshney (Eds.), Wiley Liss 1994) and a mouse strain with high endogenous cycling rates (Balb/c) is used instead of testosterone-treated BDFI mice.
(§1) 24 hours later (Day 1), varying doses of peptide 43-55 or vehicle were injected i.v. Bone marrow was harvested on Day 2 and the […] cycling assay conducted as in Example 14. Specifically, mice were sacrificed and single cell bone marrow suspensions prepared from the femurs. The cells were washed once and the concentration adjusted to 5×10^6 cells/ml in Fischer medium. For each test condition, one milliliter of cells was added to each of two polypropylene tubes. The tubes were incubated at 37° C. for 3 hours without (“Control”) or with (“Experimental”) the appropriate concentration of test substance. At the end of the incubation, 30 μg/ml of cytosine arabinoside (“Ara C” (Sigma)) was added to half of the tubes and the same volume of Fischer's medium was added to the others. The tubes were incubated for a further 1 hour at 37° C., after which they were placed on ice and washed twice with cold Fischer medium.
(§2) The cells were readjusted to 5×10^4-10^6/ml in Fischer's medium and 0.5 ml of cell suspension added to 5 ml of Methocult M3430 methylcellulose medium (Stem Cell Technologies, Vancouver, British Columbia). The mixture was vigorously mixed with a vortex and 1 ml was dispensed into each of five 35 mm dishes. The 35 mm dishes were in turn placed in a covered 150 mm dish with one open 35 mm dish containing sterile water. CFU-MIX colonies were counted with the use of an inverted microscope after 7 days of incubation at 37° C.
Differences in colony number between the tubes treated with medium versus the tubes treated with Ara C represent the percentage of cells in cycle under that condition according to the formula:
a=Number of CFU-MIX from tube incubated with medium alone
b=Number of CFU-MIX from tube incubated with Ara C

CFU-MIX [2] = experiment: CFU-MIX cycling assay after in vivo injection into testosterone or 5FU treated mice; parameters: species or system mouse; conditions: Table 23, 5FU-pretreated animals, 0.5 ng i.v. per 20 gram mouse
Method: In order to test the ability of purified porcine hemoglobin chains to act in vivo, BDF1 mice were injected with testosterone propionate as described in Example 1. Twenty four hours later, mice received 500 ng of either pINPROL, porcine hemoglobin alpha chain (purified from peripheral red blood cells as in FIG. 21), porcine beta chain (purified from peripheral red blood cells as in FIG. 21) or the equivalent volume of carrier intravenously. Forty eight hours later the bone marrow from each mouse was harvested and the CFU-MIX assay conducted as described in Example 14.
To assess the stem cell inhibitory activity of peptide 43-55 in vivo, B6D2 F1 mice were pre-treated with testosterone propionate as described in Example 1 or with 5FU. Specifically, testosterone propionate (100 mg/kg body weight) was injected i.p. on Day 0 into mice. Alternatively, mice were injected on Day 0 with 5FU ([…] body weight).
as §1, §2
Differences in colony number between the tubes treated with medium versus the tubes treated with Ara C represent the percentage of cells in cycle under that condition according to the formula: […]

CFU-GEMM = CFU-GEMM cycling assay, human umbilical cord blood cells; type: cell-based; conditions: Table 32, cord blood mononuclear cells
Method: In order to investigate the ability of purified INPROL from porcine bone marrow to affect cycling on human progenitors, umbilical cord blood cells were obtained. Either the total mononuclear cell fraction obtained after separation on Ficoll or the CD34^+ fraction obtained after fractionation on anti-CD34 affinity columns (CellPro Inc.) was used. Cells were incubated for 48 hours in vitro in the presence of interleukin 3 (IL-3) and stem cell factor (SCF) (100 ng/ml each) in order to ensure that the early stem cells were in cycle. After this preincubation, cycling assays were conducted as described in Example 14 for the mouse except that CFU-GEMM (instead of CFU-MIX) were counted on Day 18 after plating.
The human cord blood CFU-GEMM cycling assay was conducted as in Example 19. Specifically, mononuclear cells were isolated from human umbilical cord blood cells and adjusted to 24×10^4 cells/ml in IMDM tissue culture medium supplemented with 10% FBS, 100 ng/ml kit ligand and 100 ng/ml human IL-3. The cells were incubated for 48 hours at 37° C.
After incubation, cells were washed and resuspended in serun-free NDM at a concentration of 10^6 cells/ml. One ml of cells was added to each of two polypropylene tubes per condition and the cycling assay conducted as in Example 24 for mouse bone marrow. After the Ara C incubation cells were washed with cold NDM and adjusted to 10,000 to 20,000 cells per 0.5 ml IMDM and mixed with 5 ml Methocult H4433 (Stem Cell Technologies). Alternatively, Methocult H4435 methylcellulose medium (Stem Cell Technologies) was used in which case the cell concentration was adjusted to 2500-5000 cells per 0.5 ml IMDM. The cells were plated as in Example 24 and CFU-GEMM colonies scored on days 14-18.

[3] = Distribution of ubiquitin fusion proteins between soluble fraction and precipitate of E. coli lysate (SDS-PAGE); type: physicochemical; conditions: after centrifugation of the bacterial lysate
Method: To obtain protein for assay, 100 ml starter cultures in 250 ml shake flasks were grown from single colonies by overnight incubation (16-20 hours) in 2×YT medium with ampicillin (100 μg/ml), neomycin (10 μg/ml) and 1% glucose. Shaker flask cultures were maintained at 30° C. and 250 rpm in a New Brunswick environmental shaker incubator. The next morning the culture was diluted to liter with medium Cells were induced by IPTG addition to 1 mM (final dilution) at OD600=0.5 and harvested at OD600=0.8 by centrifugation. The harvested cells were resuspended in hypotonic lysis buffer (100 μl of 50 mM Tris, pH 10.0). The bacterial cells were lysed by subjecting the suspension to three cycles of freeze-thaw (dry ice-ethanol bath for freezing and 60° C. for thawing). The suspension was then sonicated for 10 min and centrifuged at 12,000 g for 10 min. The resulting supernatant was designated as “S1”. The cell pellet was resuspended in 50 mM Tris, pH10 and 2×SDS tricine loading buffer (Novex, San Diego, Calif.) (1:1). The mixture was then heated at 95° C. for 15 min and centrifuged at 12,000 g for 10 min. The portion of the precipitate capable of being resolubilized in this manner was called “P1”. The portion of the precipitate derived from the remaining pellet was called “P2”. P2 was resuspended in loading buffer as for P1. Samples from S1, P1 and P2 were analyzed by SDS-PAGE. […]

CFU-S = CFU-S proliferation assay, 3H-Thymidine suicide method (bone marrow incubated with test fractions); type: cell-based, mouse; conditions: Table 8, bone marrow from testosterone treated mice
Method: For the detection of stem cells proliferation the number of CFU-S in S-phase of the cell cycle was measured by the ^3H-Thymidine “suicide” method (Becker et al., Blood 26:296-308, 1965).
Immature hematopoietic progenitors-Colony Forming Units in spleen (CFU-S)—can be detected in vivo by forming macroscopic colonies in the spleens of lethally irradiated mice, 8-12 days after the intravenous injection of hematopoietic cells (Till & McCulloch, 1961).
For the standard CFU-S proliferation assay the method of ^3H-Thymidine “suicide” is usually applied (Becker et al., 1965). The method is based on incorporation of radiolabelled Thymidine, (^3H-Thymidine) a precursor of DNA into cells during DNA synthesis. The CFU-S which are in S-phase of the cycle at the time of testing, are killed by the high radioactivity and therefore not able to form colonies in spleen.
The inhibitor testing can not be done with the bone marrow stem cell population from unstimulated animals, as far as the inhibitor only effects cycling CFU-S, which are as low as 7-10% of the total CFU-S population in the bone marrow of normal mice.
To stimulate CFU-S proliferation, phenylhydrazine (PHZ), or sublethal irradiation were used (Lord, 1976).
The TSP induced stimulation of CFU-S proliferation within 20-24 hours after injection and the effect could be seen for at least 7 days.
The procedure used for the screening of the fractions during purification of the Inhibitor was as follows:
Mice: BDF1 or CBF1 mice strains were used throughout all testing.
Donor mice were treated with a 10 mg/100 g dose of TSP by intraperitoneal injection of 0.2 ml/mouse in order to induce 30-35% of the CFU-S into S-phase.
Twenty-four hours later the bone marrow is taken from the femurs for the cell suspension preparation. […]
Recipient spleens are harvested on day 9-12 and fixed in Tellesnitsky's solution; the colonies are scored by eye score. The percentage of cells in S-phase are calculated using the formula. […]

mouse bone marrow cells = experiment: Colony formation after pre-incubation of bone marrow cells from 5FU-treated mice; type: cell-based; conditions: 4 hours pre-incubation
Method: The purpose of this experiment was to compare the inhibitory effects of pre-incubation with pINPROL and MIP-1α on mouse bone marrow cells in vitro.
The following procedure was used:
in vivo: BDF1 mice, 6-15 weeks of age, are injected with 200 mg/kg 5FU i.p. 48 hours before harvesting marrow from the femurs.
in vitro: A single cell pooled suspension is counted and 5×10^6 cells are incubated in a total of 2 mls with or without pINPROL or MIP-1α, with 5% horse serum, IMDM media with added L-glutamine, at 37° C. and 5% CO2 for 4 hours. The cells are then washed twice and recounted. They are plated in methylcellulose in the following final conditions:
20 ng/ml recombinant murine IL-3
Plates were incubated for 11 days at 37° C. and 5% CO2 in 100% humidity. Colonies more than 50 cells were counted.

HPP-CFC = HPP-CFC assay after 4 hour pre-incubation; type: cell-based, mouse; conditions: 200 ng/ml, day 14
Method: An in vitro assay for assessing murine reconstituting stem cells and early precursors is the high proliferative potential colony ([…]) assay; other related assays, e.g., CFU-A, CFU-GM, CFU-E, and CFU-GEMM, detect progressively restricted progenitor populations (M. Moore, Blood […]:2122-2128, 1991).
BDF1 mice were treated with 5-fluorouracil (200 mg/kg i.p.) before their bone marrow was assayed for HPP-CFC numbers. Cells were washed by centrifugation and incubated at densities of 10^6 to 5×10^6/ml in medium with either no added agent (Controls), pINPROL (25 ng/ml) or MIP-1α (200 ng/ml) for 4 hours. After incubation, cells were washed and plated in agar (0.3%) with 30% FCS and combined conditioned medium from 5637 and WEHI-3B cell lines (7.5% of each conditioned medium, as recommended by Sharp et al., 1991). Plating concentration was 5×10^4 cells/ml in 60 mm dishes.

With “Cys-Phe-Pro-His-Phe-Asp-Leu-Ser-His-Gly-Ser-Ala-Gln-Val-Cys (CFPHFDLSHGSAQVC; disulfide 1-15 (inferred)) [Cyclic Peptide 43-55, cyclic derivative of the 43-55 peptide]” the “% Kill” value (CFU-MIX [1]) was 0%, the “% Kill” value (CFU-MIX [2]) was 14% and the “% Kill” value (CFU-GEMM; 1 ng/ml) was 32%. The “% Kill” value (CFU-GEMM; 10 ng) was 0%, the “% Kill” value (CFU-GEMM; 100 ng/ml) was 11% and the “fraction of bacterial lysate containing the peptide” value [3] was “contained in the soluble fraction”.

For “Hbg: C4 Reverse-phase purified porcine hemoglobin beta chain (derived from 2X crystallized pig hemoglobin)”, the “% Kill” value (CFU-S; 40 ng/ml) was 7% and the “% Kill” value (CFU-S; 200 ng/ml) was 25%.

B1: MIP-1α: cytokine macrophage inflammatory protein 1-alpha, previously characterized stem cell inhibitor (protein, UniProt P10147 24-92, looked up)
C-C motif chemokine 3: SLAADTPTACCFSYTSRQIPQNFIADYFETSSQCSKPGVIFLTKRSRQVCADPSEEWVQKYVSDLELSA
In the case of B1, the “% Kill” value (CFU-S; 200 ng/ml) is reported as 13%, the “Percent of Control” value (mouse bone marrow cells; colonies after 11 days) is reported as 114% and the “Colony Number” value (mouse bone marrow cells; colonies more than 50 cells after 11 days) is reported as 35.25. The “% of Control” value (HPP-CFC) was 101% and the HPP-CFU (HPP-CFC) was 15.8 ± 0.9.
